Source: patent US20070154906A1, “Methods to identify therapeutic candidates” (Spirogen Ltd., priority 2005, published 2007)

What was measured:
[1] = tested on: MS2 DNA fragment (MS2F and MS2R); assay: DNase I footprinting on MS2 DNA fragment; type: binding; settings: for footprint shape at position H (footnote 1) / footprint shape at position J (footnote 2): MS2 DNA fragment; for footprint shape at position H (footnote 1): site H; for footprint shape at position J (footnote 2): site J
Procedure: The sequence selectivity of the six PBD-pyrrole conjugates (GWL 77, GWL 78, GWL 79, GWL 80, GWL 81 and GWL 82) was evaluated by standard DNA footprinting on a fragment of MS2 as follows, in accordance with the technique described in Martin, Biochemistry (2005) 44:4135-4147.
The vast majority of footprint sites are common features in the binding profiles of all six conjugates, with only a small number of sites being footprinted by a subset of the family. Even more unexpectedly, no site is footprinted by only one molecule (in fact, the fewest number of conjugates that bind at any single site is four). The differential cleavage plot in FIG. 5 provides footprinting profiles at a supramaximal concentration color-coded for each conjugate which illustrates a striking degree of overlap. Although there is no conspicuous change in footprinting patterns as the number of pyrroles units in each conjugate increases, there are changes in two other features, namely, the apparent binding affinity and the width of the footprinted site. […] To simplify comparison between molecules, only the most significant footprint site (5′-^62[…]^70−3′/3′-[…]-5′) (SEQ ID NO:24) was selected for comparison. When the binding affinity of each molecule is compared to the relative number of pyrrole units it contains, a parabolic relationship is observed. By this method, GWL 80 (four pyrroles) appears to be the strongest binder with a DNase IC50 of around 30 nM. Conjugate GWL 79 (three pyrroles) and GWL 81 (five pyrroles) follow closely with affinities in the region of 30-100 nM. […] Finally, GWL 77 (one pyrrole) is a particularly weak footprinting molecule with an DNase IC50 of about, or in excess of, 10 μM.

[2] = tested on: K562 human chronic myeloid leukemia cells; assay: In vitro cytotoxicity assay (MTT); type: cell-based; settings: K562, one hour exposure, MTT after four days
Procedure: In one aspect of this test, K562 human chronic myeloid leukemia cells are maintained in RPMI1640 medium supplemented with 10% fetal calf serum and 2 mM glutamine at 37° C. in a humidified atmosphere containing 5% CO2 and are incubated with a specified dose of drug for one hour at 37° C. in the dark. The incubation is terminated by centrifugation (5 min, 300 g) and the cells are washed once with drug-free medium. Following the appropriate drug treatment, the cells are transferred to 96-well microtiter plates (10^4 cells per well, 8 wells per sample). Plates are then kept in the dark at 37° C. in a humidified atmosphere containing 5% CO2. The assay is based on the ability of viable cells to reduce a yellow soluble tetrazolium salt, 3-(4,5-dimethylthiazol-2-yl)-2,5-diphenyl-2H-tetrazolium bromide (MTT, Aldrich-Sigma), to an insoluble purple formazan precipitate. Following incubation of the plates for four days (to allow control cells to increase in number by approximately 10 fold), 20 μL of MTT solution (5 mg/ml in phosphate-buffered saline) is added to each well and the plates further incubated for five hours. […] The optical density is then read at a wavelength of 550 nm on a […]™ (Titertek Labsystems, Finland) ELISA plate reader, and a dose-response curve is constructed. […]

[3] = tested on: MCF-7 human mammary cells; assay: Cellular uptake and nuclear incorporation, confocal microscopy; type: cell-based; settings: for nuclear uptake: 200 μM over 24 hour; for time to cellular uptake / detection: MCF-7 cells; for nuclear fluorescence: highest drug concentrations, exposure time 24 hour
Procedure: Cellular uptake and nuclear incorporation of drug into MCF-7 human mammary cells was visualized using confocal microscopy. Conjugates GWL 77, GWL78, GWL 79, GWL 80 and GWL 81 were prepared in DMSO at 20 mM and diluted in RPMI to the appropriate concentration. Freshly harvested MCF7 cells at 5×10^4 cells/ml were placed in 200 μl of complete RPMI1640 (containing 10% FCS) into the wells of 8-well chambered cover-glasses. Cells were left overnight to adhere at 37° C. […] At 1, 5 and 24 hours after addition of conjugates, the cells were examined using a Nikon TE2000 with UV filter set and viewed under oil immersion with the x63 objective lens.

[4] = differential cleavage analysis, compared with GWL 79

SMILES	apparent binding affinity relative to GWL 79 ([1]; C11 versus GWL 79)	binding at positions K and L [1, 4]	footprints at positions D, M and G [1, 4]	footprint at position G ([1]; differential cleavage analysis)	IC50 ([1]; read-out: DNase IC50 (concentration of conjugate providing 50% inhibition of DNase I-mediated cleavage), site 5'-62CAATACACA70-3', estimated by eye from footprint images) [nM]	IC50 [2] [nM]	nuclear uptake [3]	time to cellular uptake / detection [3] [h]	nuclear fluorescence [3]	footprint shape at position H (footnote 1) [1]	footprint shape at position J (footnote 2) [1]
COC(=O)c1cc(NC(=O)c2cc(NC(=O)c3cc(NC(=O)CCOc4cc5c(cc4OC)C(=O)N4CCC[C@H]4C=N5)cn3C)cn2C)cn1C [C11, reference compound]	30-100 fold	much weaker binding	lack of footprints	–	–	–	–	–	–	–	–
COC(=O)c1cc(NC(=O)CCCOc2cc3c(cc2OC)C(=O)N2CCC[C@H]2C=N3)cn1C [GWL 77, (11aS) methyl 4-[4-(7-methoxy-5-oxo-2,3,5,11a-tetrahydro-5H-pyrrolo[2,1-c][1,4]benzodiazepine-8-yloxy)-butyrylamino]-1-methyl-1H-pyrrole-2-carboxylate]	–	–	–	footprinted	≥ 10000	51	clear nuclear uptake	< 1	strong nuclear fluorescence	–	–
COC(=O)c1cc(NC(=O)c2cc(NC(=O)CCCOc3cc4c(cc3OC)C(=O)N3CCC[C@H]3C=N4)cn2C)cn1C [GWL 78, (11aS) methyl 4-({4-[4-(7-methoxy-5-oxo-2,3,5,11a-tetrahydro-5H-pyrrolo[2,1-c][1,4]benzodiazepine-8-yloxy)-butyrylamino]-1-methyl-1H-pyrrole-2-carbonyl}-amino)-1-methyl-1H-pyrrole-2-carboxylate]	–	–	–	footprinted	–	–	clear nuclear uptake	3	strong nuclear fluorescence	–	–
COC(=O)c1cc(NC(=O)c2cc(NC(=O)c3cc(NC(=O)CCCOc4cc5c(cc4OC)C(=O)N4CCC[C@H]4C=N5)cn3C)cn2C)cn1C [GWL 79, (11aS) methyl 4-{[4-({4-[4-(7-methoxy-5-oxo-2,3,5,11a-tetrahydro-5H-pyrrolo[2,1-c][1,4]benzodiazepine-8-yloxy)-butyrylamino]-1-methyl-1H-pyrrole-2-carbonyl]-amino)-1-methyl-1H-pyrrole-2-carbonyl]-amino}-1-methyl-1H-pyrrole-2-carboxylate]	–	–	–	–	–	–	clear nuclear uptake	3	strong nuclear fluorescence	–	–
COC(=O)c1cc(NC(=O)c2cc(NC(=O)c3cc(NC(=O)c4cc(NC(=O)CCCOc5cc6c(cc5OC)C(=O)N5CCC[C@H]5C=N6)cn4C)cn3C)cn2C)cn1C [GWL 80, (11aS) methyl 4-[(4-{[4-({4-[4-(7-methoxy-5-oxo-2,3,5,11a-tetrahydro-5H-pyrrolo[2,1-c][1,4]benzodiazepine-8-yloxy)-butyrylamino]-1-methyl-1H-pyrrole-2-carbonyl]-amino)-1-methyl-1H-pyrrole-2-carbonyl]-amino}-1-methyl-1H-pyrrole-2-carbonyl)-amino]-1-methyl-1H-pyrrole-2-carboxylate]	–	–	–	footprinted	–	–	–	–	more diffuse throughout the cell	^127, 29, 31 show evidence of two closely juxtaposed footprints at this position	^227, 29, 31 show evidence of two closely juxtaposed footprints at this position
COC(=O)c1cc(NC(=O)c2cc(NC(=O)c3cc(NC(=O)c4cc(NC(=O)c5cc(NC(=O)CCCOc6cc7c(cc6OC)C(=O)N6CCC[C@H]6C=N7)cn5C)cn4C)cn3C)cn2C)cn1C [GWL 81, (11aS) methyl 4-({4-[(4-{[4-({4-[4-(7-methoxy-5-oxo-2,3,5,11a-tetrahydro-5H-pyrrolo[2,1-c][1,4]benzodiazepine-8-yloxy)-butyrylamino]-1-methyl-1H-pyrrole-2-carbonyl]-amino)-1-methyl-1H-pyrrole-2-carbonyl]-amino}-1-methyl-1H-pyrrole-2-carbonyl)-amino]-1-methyl-1H-pyrrole-2-carbonyl}-amino)-1-methyl-1H-pyrrole-2-carboxylate]	–	–	–	footprinted	–	–	–	–	more diffuse throughout the cell	^127, 29, 31 show evidence of two closely juxtaposed footprints at this position	^227, 29, 31 show evidence of two closely juxtaposed footprints at this position
COC(=O)c1cc(NC(=O)c2cc(NC(=O)c3cc(NC(=O)c4cc(NC(=O)c5cc(NC(=O)c6cc(NC(=O)CCCOc7cc8c(cc7OC)C(=O)N7CCC[C@H]7C=N8)cn6C)cn5C)cn4C)cn3C)cn2C)cn1C [GWL 82, (11aS) methyl 4-{[4-({4-[(4-{[4-({4-[4-(7-methoxy-5-oxo-2,3,5,11a-tetrahydro-5H-pyrrolo[2,1-c][1,4]benzodiazepine-8-yloxy)-butyrylamino]-1-methyl-1H-pyrrole-2-carbonyl]-amino)-1-methyl-1H-pyrrole-2-carbonyl]-amino}-1-methyl-1H-pyrrole-2-carbonyl)-amino]-1-methyl-1H-pyrrole-2-carbonyl}-amino)-1-methyl-1H-pyrrole-2-carbonyl]-amino}-1-methyl-1H-pyrrole-2-carboxylate]	–	–	–	–	–	32	–	–	more diffuse throughout the cell	^127, 29, 31 show evidence of two closely juxtaposed footprints at this position	^227, 29, 31 show evidence of two closely juxtaposed footprints at this position
